Key:
[1] = test system: Lactobacillus casei and Streptococcus sp. FA-1; experiment: Acid-production inhibition by broth-tube assay, 0.1 percent of compound; format: cell-based; conditions: for Activity, Acid-Production Inhibition, %: Table XII, 0.1% of compound; for inhibition at 0.1 %: Table X, 0.1 percent of compound, read-out: Activity, Acid-Production Inhibition%
Experimental: ^(a) Activity was measured by broth-tube assay to determine percent
(§1) acid-production inhibition obtained by Lactobacillus casei and
Streptococcus sp. FA-1 in the presence of 0.1 percent of compound.
^(a) Activity was measured by broth-tube assay to determine percent o
as §1
Streptococcus sp. FA-1 in the presence of 0.1% of compound. Symbols

[2] = In vivo caries evaluation, Osborne-Mendel strain 2 rat; set-up: species or system rat (Osborne-Mendel strain 2); Caries Score, Mean Incidence / Caries Score, Mean Extent: scale not given here; conditions: for Caries Score, Mean Incidence / Caries Score, Mean Extent: 1 percent in diet; for Caries Extent Reduction, statistical evaluation / Caries Incidence Reduction, statistical evaluation: Student's test, 95 percent confidence limit
Description: (§2) Standard laboratory techniques were used to complie the data presented. In each case the aldehyde was incorporated into each specimen's food in a one percent, by weight, quantity, over a period of several weeks. In all cases, caries reduction was noted.
(§3) The aldehydes tested in vivo were pyruvaldehyde, d,1-glyceraldehyde, crystalline dimer, glycolaldehyde, octanaldehyde, nonanaldehyde, decanaldehyde, undecylenic aldehyde, and lauric aldehyde. The polyaldehydes tested were dialdehyde starch, dialdehyde starch 50 percent oxidized, dialdehyde starch 90 percent oxidized, and dialdehyde galactomannan gum.
(§4) ^(a) Agents were incorporated in the diet at a 1 percent level.

[3] = test system: Lactobacillus casei ATCC 4646; experiment: Growth inhibition by aldehydes in product vehicles, pour-plate technique; format: cell-based; conditions: in tooth powder (aqueous extract), 1 to 5 percent aldehyde
Experimental: (§5) Other in vitro evaluations utilized a broth tube analysis of representative anticaries aldehydes incorporated in the vehicles of this invention against cultures of acid producing microorganisms normally present in the mouth. Standard laboratory procedures were utilized throughout to evaluate the acid production inhibition and growth inhibition over the incubation time of up to 24 hours.
(§6) (b)Measured by pour-plate technique.
(§7) In formulating Tables XIII - XIX representative aldehydes having anticaries activity were selected from those tested as summarized in Tables I - XII and incorporated in seven representative types of products. The products included dextrose and sucrose syrups, obtained commercially in food grades, and compressed candy, hard candy, mouthwash, toothpaste and toothpowder. The five latter products also employed food grade and reagent grade ingredients. These products were formulated by well-known and representative recipes for each type of product. The products were formed in batches of approximately 1 pound or 1 liter and contained all their normal constitutents. Aliquots of each products were blended with one of each of the representative aldehydes selected except in the case of hard candy.
(§8) Aliquots of the aldehyde incorporating sugar syrups, confectioneries, and mouthwash formulations were added directly to assay flasks and mixed or dissolved as required. Aqueous extracts of the aldehyde incorporated in toothpaste and toothpowder were prepared and aliquots of the filtrate were added to the assay flasks.
(§9) The assay flasks contained the necessary components for a normal growth response from the organisms employed, Lactobacillus casei ATCC 4646, originally a human oral isolate, Streptococcus spp. K1-R, human caries isolate, and a mixed oral microbial population obtained fresh from saliva on the morning prior to the initiation of each assay incubation period. The assay flask medium was dissolved in distilled water in which was added an equal volume of filter sterilized human saliva to yield a 50 percent saliva-medium combination. The medium contained all normal ingredients such as yeast extract, proteose peptone number 3 (a proprietary formula of Difco Laboratories, Detroit, Michigan) monopotassium phosphate, Tween 80 (polyoxethylene sorbitan monoleate) and water, except a carbon source. This was supplied by the aliquot of the sucrose syrup, dextrose syrup, sucrose in the compressed candy tablet and sucrose in the hard candy product. In addition, an aliquot of sucrose solution concentrate was added to the assay flask as a carbon source for evaluation of mouthwash, toothpaste, and toothpowder vehicles.
(§10) The lower aldehydes such as glycolaldehyde, crystalline dimer; pyruvaldehyde, aqueous syrup; d,1-glyceraldehyde solution and crystalline dimer; and glutaraldehyde, employed as a 50 percent aqueous solution, are water soluble and were employed directly either as powders or aqueous solutions. The C8 to C12, longer chain aliphatic aldehydes, of which decyl and dodecyl (lauric) were selected as representative, are oil soluble and are prepared and added to the products as emulsions with four parts of Tween 20, polyoxethylene sorbitan monolaurate. The aldehyde concentrations in the products were randomly chosen between 1 to 5 percent by weight. Limits for the concentrations were selected to coincide with the data presented in Tables I - XII in order to verify that the anticaries activity of the aldehydes in the product vehicles tested was equivalent to the activity previously established for the aldehydes alone.

[4] = test system: Mixed human oral microorganisms; experiment: as above; format: cell-based; conditions: in tooth powder (aqueous extract), 1 to 5 percent aldehyde
Experimental: as §5, §6, §7, §8, §9, §10

Streptococcus spp. KI-R [5] = experiment: as above; format: cell-based; conditions: in tooth powder (aqueous extract), 1 to 5 percent aldehyde
Experimental: as §5, §6, §7, §8, §9, §10

Streptococcus spp. FA-1 = experiment: Growth inhibition of oral microorganisms in vitro, pour plates; format: cell-based; conditions: Table IX; for Bacterial Population, Experimental: control 2 × 10^8 to 5 × 10^8; for Inhibition (growth): pour plates incubated 48 - 72 hours
Experimental: (§11) (a)Determined on freshly grown pure cultures. Pour plates were incubated

[6] = test system: Lactobacillus casei ATCC 4646; experiment: Acid production inhibition by aldehydes in product vehicles, broth-tube technique; format: cell-based; conditions: in tooth powder (aqueous extract), 1 to 5 percent aldehyde
Experimental: as §5
(§12) (a)Measured by broth-tube technique.
as §7, §8, §9, §10

[7] = test system: Mixed human oral microorganisms; experiment: as above; format: cell-based; conditions: in tooth powder (aqueous extract), 1 to 5 percent aldehyde
Experimental: as §5, §12, §7, §8, §9, §10

Streptococcus spp. KI-R [8] = experiment: as above; format: cell-based; conditions: in tooth powder (aqueous extract), 1 to 5 percent aldehyde
Experimental: as §5, §12, §7, §8, §9, §10

L. casei = experiment: Growth inhibition of oral microorganisms in vitro, pour plates; format: cell-based, Lactobacillus casei; conditions: Table IX; for Bacterial Population, Experimental: control 8 × 10^8 to 1 × 10^9; for Inhibition (growth): pour plates incubated 48 - 72 hours
Experimental: as §11

[9] = In vivo caries evaluation, laboratory animals (summary); conditions: one percent level in diet
Description: as §2, §3

[10] = In vivo caries evaluation, Osborne-Mendel strain 1 rat; set-up: species or system rat (Osborne-Mendel strain 1); Caries Score, Mean Incidence / Caries Score, Mean Extent: scale not given here; conditions: Table II, 90 days; for Caries Score, Mean Incidence / Caries Score, Mean Extent: 1 percent in diet; for Caries Score, Mean Incidence: RCD control 19.0 (octan-), 14.1 (nonan-), 17.6 (decan-), 22.3 (undecylenic); for Caries Score, Mean Extent: RCD control 49.6 (octan-), 34.3 (nonan-), 46.0 (decan-), 54.6 (undecylenic); for Caries Extent Reduction, statistical evaluation / Caries Incidence Reduction, statistical evaluation: Student's test, 95 percent confidence limit
Description: as §2, §3, §4

[11] = In vivo caries evaluation, albino hamster; conditions: Table II, 59 days
Description: as §2, §3, §4

[12] = Table II, 90 days, L2000 control 17.4
[13] = Table II, 90 days, L2000 control 31.3
[14] = Student's test, 95 percent confidence limit

Compound: O=CCCCC(O)C=O (stereo not shown) [2-Hydroxyadipaldehyde]
- Activity, Acid-Production Inhibition, % [1]: + (25 to 74)

Compound: CC(C)=CCCC(C)=CC=O [Citral]
- inhibition at 0.1 % [1]: 99 to 100%

Compound: OCC1OC(O)C(CO)OC1O (stereo not shown) [Glyceraldehyde, crystalline dimer]
- Caries Score, Mean Incidence ([2]; Table I, 91 days, L-2000 control 23.5): 15.0
- Caries Score, Mean Extent ([2]; Table I, 91 days, L-2000 control 51.0): 29.4
- Caries Extent Reduction, statistical evaluation ([2]; Table I, 91 days): Significant
- Caries Incidence Reduction, statistical evaluation ([2]; Table I, 91 days): Significant

Compound: O=CC=O [Glyoxal]
- Activity, Acid-Production Inhibition, % [1]: ++++ (99 to 100)

Compound: CCCCCCCCCCCC=O [Lauric aldehyde]
- Growth Inhibition ([3]; 2 h incubation): 99.5 Per cent
- Growth Inhibition ([3]; 5 h incubation): > 99.99 Per cent
- Growth Inhibition ([3]; 24 h incubation): 99.99 Per cent
- Growth Inhibition ([4]; 2 h incubation): 99.8 Per cent
- Growth Inhibition ([4]; 5 h incubation): 99.6 Per cent
- Growth Inhibition ([4]; 24 h incubation): N.S.
- Growth Inhibition (Streptococcus spp. KI-R [5]; 2 h incubation): 99.2 Per cent
- Growth Inhibition (Streptococcus spp. KI-R [5]; 5 h incubation): > 99.99 Per cent
- Growth Inhibition (Streptococcus spp. KI-R [5]; 24 h incubation): 100 Per cent
- Bacterial Population, Experimental (Streptococcus spp. FA-1): 0
- Inhibition (growth) (Streptococcus spp. FA-1): 100%
- Acid Production Inhibition ([6]; 2 h incubation): 0 Per cent
- Acid Production Inhibition ([6]; 5 h incubation): 0 Per cent
- Acid Production Inhibition ([6]; 24 h incubation): 93 Per cent
- Acid Production Inhibition ([7]; 2 h incubation): 33 Per cent
- Acid Production Inhibition ([7]; 5 h incubation): 96 Per cent
- Acid Production Inhibition ([7]; 24 h incubation): 0 Per cent
- Acid Production Inhibition (Streptococcus spp. KI-R [8]; 2 h incubation): 0 Per cent
- Acid Production Inhibition (Streptococcus spp. KI-R [8]; 5 h incubation): 0 Per cent
- Acid Production Inhibition (Streptococcus spp. KI-R [8]; 24 h incubation): 0 Per cent
- Caries Score, Mean Incidence [2, 12]: 10.0
- Caries Score, Mean Extent [2, 13]: 15.6
- Caries Extent Reduction, statistical evaluation ([2]; Table II, 90 days): Significant
- Caries Incidence Reduction, statistical evaluation ([2]; Table II, 90 days): Significant
- Bacterial Population, Experimental (L. casei): < 1 × 10^2
- Inhibition (growth) (L. casei): > 99.99%
- Anticaries effect in laboratory animals [9]: significant anticaries activity
- inhibition at 0.1 % [1]: 99 to 100%

Compound: O=CC(=O)C=O [Mesoxalic dialdehyde]
- Activity, Acid-Production Inhibition, % ([1]; confirmation of purity and structure lacking, actual activity could be much higher): + (25 to 74)

Compound: CCCCCCCCCC(C)C=O (stereo not shown) [Methylnonylacetaldehyde]
- Bacterial Population, Experimental (Streptococcus spp. FA-1): 0
- Inhibition (growth) (Streptococcus spp. FA-1): 100%
- Bacterial Population, Experimental (L. casei): < 1 × 10^3
- Inhibition (growth) (L. casei): > 99.99%
- inhibition at 0.1 % [1]: 90 to 98%

Compound: CCCCCCCCC=O [Nonanaldehyde]
- Bacterial Population, Experimental (Streptococcus spp. FA-1): 0
- Inhibition (growth) (Streptococcus spp. FA-1): 100%
- Bacterial Population, Experimental (L. casei): 4 × 10^4
- Inhibition (growth) (L. casei): > 99.99%
- Anticaries effect in laboratory animals [9]: significant anticaries activity
- Caries Score, Mean Incidence [10]: 5.1
- Caries Score, Mean Extent [10]: 10.2
- Caries Extent Reduction, statistical evaluation [10]: Significant
- Caries Incidence Reduction, statistical evaluation [10]: Significant
- inhibition at 0.1 % [1]: 99 to 100%

Compound: CCCCCCCC=O [Octanaldehyde]
- Bacterial Population, Experimental (Streptococcus spp. FA-1): 9 × 10^3
- Inhibition (growth) (Streptococcus spp. FA-1): > 99.99%
- Caries Score, Mean Incidence ([11]; 1 percent in diet, L2000 control 39.3): 18.6
- Caries Score, Mean Extent ([11]; 1 percent in diet, L2000 control 117.6): 53.8
- Caries Extent Reduction, statistical evaluation [11, 14]: Significant
- Caries Incidence Reduction, statistical evaluation [11, 14]: Significant
- Caries Score, Mean Incidence [2, 12]: 2.9
- Caries Score, Mean Extent [2, 13]: 4.1
- Caries Extent Reduction, statistical evaluation ([2]; Table II, 90 days): Significant
- Caries Incidence Reduction, statistical evaluation ([2]; Table II, 90 days): Significant
- Bacterial Population, Experimental (L. casei): 2 × 10^7
- Inhibition (growth) (L. casei): 97%
- Anticaries effect in laboratory animals [9]: significant anticaries activity
- Caries Score, Mean Incidence [10]: 9.8
- Caries Score, Mean Extent [10]: 20.4
- Caries Extent Reduction, statistical evaluation [10]: Significant
- Caries Incidence Reduction, statistical evaluation [10]: Significant
- inhibition at 0.1 % [1]: 99 to 100%

Compound: O=CCCC=O [Succinic dialdehyde]
- Activity, Acid-Production Inhibition, % [1]: ++++ (99 to 100)

Compound: CC=CCCCCCCCC=O [Undecylenic aldehyde]
- Bacterial Population, Experimental (Streptococcus spp. FA-1): 0
- Inhibition (growth) (Streptococcus spp. FA-1): 100%
- Bacterial Population, Experimental (L. casei): 1 × 10^2
- Inhibition (growth) (L. casei): > 99.99%
- Anticaries effect in laboratory animals [9]: significant anticaries activity
- Caries Score, Mean Incidence [10]: 7.4
- Caries Score, Mean Extent [10]: 16.4
- Caries Extent Reduction, statistical evaluation [10]: Significant
- Caries Incidence Reduction, statistical evaluation [10]: Significant
- inhibition at 0.1 % [1]: 99 to 100%

Compound: CCCCCCCCCCC=O [Undecylic aldehyde]
- Bacterial Population, Experimental (Streptococcus spp. FA-1): 2 × 10^3
- Inhibition (growth) (Streptococcus spp. FA-1): > 99.99%
- Bacterial Population, Experimental (L. casei): 5 × 10^4
- Inhibition (growth) (L. casei): > 99.99%
- inhibition at 0.1 % [1]: 99 to 100%

Source: patent US4048299A, “Anticaries confectionaries and oral health products” (William Wrigley, Jr. Co., priority 1970, dated 1977)
